Test results: US10209240B2, “Predicting human developmental toxicity of pharmaceuticals using human stem-like cells and metabolomic ratios” (STEMINA BIOMARKER DISCOVERY, INC., priority 2012, dated 2019)

Legend:
WA09 hES cells [1] = assay: Phase 2 targeted biomarker assay, ornithine/cystine ratio, 9-point dose response; details: for Teratogenicity Potential (μM) O/C Ratio: human, 72 h
How it was run: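 WA09 hES cells (≤ passage 40), plated as single cells at 100,000/well on Matrigel in mTeSR1 with 10 μM Y27632, dosed 24 h later with nine 3-fold dilutions, 0.04–300 μM, 0.1% DMSO, for 72 h. Final-24 h spent medium, spiked with 13C6-arginine and filtered (<10 kDa), analysed by LC-HRMS; viability by CellTiter-Fluor.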

WA09 hES cells [2] = details: for Teratogenicity Potential (μM) Cell Viability: human, 72 h
hES cells [3] = assay: devTOX computational model predictions (Version 2.0, Version 2.1) from hES cell metabolomics; assay type: cell-based, human; details: single dose per treatment (Dose column)
Excerpt: The selection process weighted the predictive capacity of a feature, overall intensity, and peak shape to identify very well behaved features/metabolites that could be measured by targeted LC-MS or even by other detection systems.
This simplified model is based on a ratio of the reference treatment (DMSO) normalized values of ADMA and cystine.

hES cells [4] = assay: ADMA/cystine ratio simplified predictive model in hES cell spent media; assay type: cell-based, human; details: single dose per treatment; ratios less than 0.9 indicate teratogenicity
How it was run: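 hES cell spent media were analysed for ADMA and cystine, each normalized to the DMSO reference, and their ratio formed. Each value is the median of independent blocks (6 reps each). A ratio cutoff of 0.9 classifies teratogens versus non-teratogens.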

zebrafish = details: training and test set; weak/moderate and strong teratogens both labeled teratogen; cited from earlier work
[5] = training set compounds; summarized from TERIS and Briggs et al. 2011; cited from earlier work

Structure (SMILES)	O/C Ratio Prediction (WA09 hES cells [1])	Targeted Biomarker Assay prediction (WA09 hES cells [1])	Classification by o/c ratio in the targeted biomarker assay (WA09 hES cells [1])	Change in the o/c ratio, also relative to cytotoxicity (WA09 hES cells [1])	Teratogenicity Potential (μM) O/C Ratio (WA09 hES cells [1])	Viability Prediction (WA09 hES cells [2])	Teratogenicity Potential (μM) Cell Viability (WA09 hES cells [2])	Model Predictions Version 2.0 (hES cells [3])	Model Predictions Version 2.1 (hES cells [3])	Model Predictions ADMA/Cystine (hES cells [4])	ZET prediction (zebrafish)	Preclinical in vivo and known human developmental effects [5]
CC1=C(/C=C/C(C)=C/C=C/C(C)=C/C(=O)O)C(C)(C)CCC1 [All-trans Retinoic Acid]	TER	TER		change in the o/c ratio indicative of developmental toxicity in the absence of cytotoxicity	0.00004 µM	NON	114.5 µM	Ter	Ter	Ter	TER^c,e,r	Craniofacial, limb, central
NC(=O)N1c2ccccc2C=Cc2ccccc21 [Carbamazepine]	TER	TER			0.9 µM	NON	>300 µM	Ter	Ter	Ter	TER^t	Craniofacial, central
CC1=C(/C=C/C(C)=C/C=C/C(C)=C\C(=O)O)C(C)(C)CCC1 [13-cis Retinoic Acid]	TER	TER			0.0007 µM	NON	>300 µM	Ter	Ter	Ter	TER^r	Craniofacial, limb, central

More lines, main results first:

O/C Ratio Prediction (WA09 hES cells [1])	Targeted Biomarker Assay prediction (WA09 hES cells [1])	Classification by o/c ratio in the targeted biomarker assay (WA09 hES cells [1])	Structure (SMILES)	Change in the o/c ratio, also relative to cytotoxicity (WA09 hES cells [1])	Teratogenicity Potential (μM) O/C Ratio (WA09 hES cells [1])	Viability Prediction (WA09 hES cells [2])	Teratogenicity Potential (μM) Cell Viability (WA09 hES cells [2])	Model Predictions Version 2.0 (hES cells [3])	Model Predictions Version 2.1 (hES cells [3])	Model Predictions ADMA/Cystine (hES cells [4])	ZET prediction (zebrafish)	Preclinical in vivo and known human developmental effects [5]
TER	TER		O=C1CCC(N2C(=O)c3ccccc3C2=O)C(=O)N1 (centres unmarked) [Thalidomide]	change in the o/c ratio indicative of developmental toxicity in the absence of cytotoxicity	0.2 µM	NON	>300 µM	Ter	Ter	Ter	TER^d	Craniofacial,
NON	NON	misclassified	O=C1NC(=O)C(c2ccccc2)(c2ccccc2)N1 [Diphenylhydantoin]		263.3 µM	NON	288.7 µM	Non	Non	Non	NON^a	Craniofacial, limb,
